Assay results: patent US20210353648A1, “GRAPIPRANT UNIT DOSAGE FORMS” (Arrys Therapeutics, Inc., priority 2018, published 2021)
Like-named read-outs stand apart in the source and are kept apart here.

Tests used:
Assay type in all cases: in vivo, human
osteocalcin = experiment: Multiple ascending dose study: bone marker, percent change from baseline
Source text: (§1) Each bone marker (serum bone-specific alkaline phosphatase and osteocalcin, urinary N-terminal telopeptide of type I collagen) is expressed as percentage change from baseline and analyzed. To assess influence of potential outliers on the bone marker data analyses, the following analysis can be conducted first. Potential outliers are identified as outside an interval consistent with a normal distribution defined as (median±3.5 standard deviations [SD]) for each dosing regimen and day combination. The SD is a pooled estimate across all dosing regimen and day combinations, each estimated by the scaled inter-quartile range 0.75 (Q75-Q25). Explicitly, for each dosing regimen and day combination, its SD denoted by SDi is estimated by its scaled inter-quartile range 0.75 (Q75-Q25). The overall SD is estimated as
(§2) Then, the (percent change from baseline) values are analyzed with a mixed effect model, with treatment (dosing regimen), day, and treatment-by-day interaction effects considered fixed and subject considered random. Baseline value is not included as a covariate. The model is fit separately to each group of cohorts (Cohorts 1-3 and 5). For Cohorts 1-3, days of interest are day 7 and day 14. For Cohort 5, days of interest are day 10 and day 17. For each group of cohorts, compound symmetry is assumed, and Restricted Maximum Likelihood Estimates are used. The least squares means (LSMeans) and 95% confidence intervals (CI) are obtained for each treatment and day combination. Within each treatment, LSMean percent changes from baseline at each post-dosing day (i.e., day 7 and day 14 for Cohorts 1-3, and day 10 and day 17 for Cohort 5) are obtained, along with their 95% CIs. In addition, for each post-dosing day, differences of the LSMean percent changes from baseline between active dosed regimen and placebo are obtained. The p-values comparing these differences from placebo are obtained using t-tests. No adjustments are made for multiple comparisons. […] If outliers are identified, additional mixed model analyses using the same mixed effect modeling as detailed above are to be conducted excluding the outliers. […] Individual percent-change-from-baseline profile versus time plots are plotted by treatment regimen.

[1] = tested on: serum bone-specific alkaline phosphatase; experiment: as above; conditions: for change from baseline in bone-specific alkaline phosphatase (least squares mean): 300 mg BID
Source text: as §1, §2

[2] = tested on: urinary N-terminal telopeptide of type I collagen; experiment: as above
Source text: as §1, §2

[3] = Phase 1 crossover food effect study of 375 mg grapiprant tablets: pharmacokinetics; conditions: for AUC(0-inf) / Cmax / AUC(0-t) / half-life / Tmax: human, serum, po, 375 mg, single oral dose, healthy subjects (N = 12); for AUC(0-inf) / Cmax / AUC(0-t) / half-life: arithmetic mean; for AUC(0-t): read-out: AUC(0-tlast); for half-life: read-out: t½ (converted); for Tmax: median
Protocol: This study was a randomized, open-label, single dose, 2-period crossover design. Each subject participated in 2 study periods. In each study period, subjects received a dose of 375 mg administered as 3×125 mg tablets of grapiprant under fasted or fed conditions in a crossover manner according to a randomized dosing sequence. The fed condition consisted of a standardized high-fat meal. Following an initial screening period of no longer than 28 days, 12 eligible subjects were to be randomized to the 2 treatment sequences and 2 treatment period sessions as shown in Table 6-1.
In each study period, subjects received 375 mg grapiprant (as 3×125 mg tablets) under either fed or fasted conditions. Each subject received 2 single doses: Day 1 and Day 8.
Blood samples were collected at the following times: 0 (just prior to dosing), 0.5, 1, 1.5, 2, 2.5, 3, 4, 6, 8, 12, 16, 24 and 48 hours following each dosing. The primary pharmacokinetic endpoints of the study were AUC(0-tlast) (area under the serum concentration-time curve from time 0 to the time of the last quantifiable concentration), AUC(0-inf) (AUC from time 0 to infinite time), and Cmax (maximum observed serum concentration) of serum grapiprant. The secondary pharmacokinetic endpoints of the study were Tmax (the time to Cmax) and t½ (terminal elimination half-life), as the data permitted.
Log-transformed AUC(0-inf), AUC(0-tlast) and Cmax were each analyzed using a mixed effects model containing sequence, treatment (fed and fasted), and period as the fixed effects and subject (within sequence) as the random effect. The SAS procedure PROC MIXED was used for the analysis. Compound symmetry was assumed, and Restricted Maximum Likelihood Estimates (REML) were utilized.
For AUC(0-inf), AUC(0-tlast) and Cmax, on the natural log scale, estimates of the adjusted mean difference between grapiprant tablet under fed condition (test) and grapiprant under fasted condition (reference) and their corresponding 90% confidence intervals were calculated.
The anti-logs (exponent) of the difference and confidence interval were taken to estimate the mean ratio (relative bioavailability) and its corresponding 90% confidence interval. Vital signs, adverse events, ECG parameters, and safety laboratory values were summarized with descriptive statistics.

[4] = 50 mg, 14-day oral administration, healthy adults, post-dosing day 7
[5] = 50 mg, 14-day oral administration, healthy adults, post-dosing day 14
[6] = 150 mg, 14-day oral administration, healthy adults, post-dosing day 7
[7] = 150 mg, 14-day oral administration, healthy adults, post-dosing day 14
[8] = 250 mg, 17-day oral administration, elderly with minor renal impairment, post-dosing day 10
[9] = 250 mg, 17-day oral administration, elderly with minor renal impairment, post-dosing day 17
[10] = 300 mg, 14-day oral administration, healthy adults, post-dosing day 7
[11] = 300 mg, 14-day oral administration, healthy adults, post-dosing day 14
[12] = elderly subjects, 250 mg BID versus placebo
[13] = 375 mg tablets, adjusted geometric means, N = 12
[14] = 375 mg tablets, standard high-fat meal compared to fasted
[15] = 375 mg tablet-fed (high-fat meal)

CCc1nc2c(C)nc(C)cc2n1-c1ccc(CCNC(=O)NS(=O)(=O)c2ccc(C)cc2)cc1 [Grapiprant, N-((4-(2-ethyl-4,6-dimethyl-1H-imidazo[4,5-c]pyridin-1-yl)phenethyl)carbamoyl)-4-methylbenzenesulfonamide]
change from baseline in osteocalcin (least squares mean) (osteocalcin; 50 mg BID, Day 7, healthy subjects, placebo 39.30%, p=0.023): 1.40%
LS Mean change in blood osteocalcin (osteocalcin; [4]): about −37.90%
LS Mean change in blood osteocalcin (osteocalcin; [5]): about −13.58%
LS Mean change in blood osteocalcin (osteocalcin; [6]): about −31.02%
LS Mean change in blood osteocalcin (osteocalcin; [7]): about −10.29%
LS Mean change in blood osteocalcin (osteocalcin; [8]): about −5.91%
LS Mean change in blood osteocalcin (osteocalcin; [9]): about −3.96%
change from baseline in osteocalcin (least squares mean) (osteocalcin; 300 mg BID, Day 14, healthy subjects, placebo 47.84%, p=0.045): 14.37%
LS Mean change in blood osteocalcin (osteocalcin; [10]): about −10.30%
LS Mean change in blood osteocalcin (osteocalcin; [11]): about −33.47%
bone marker difference between treatment groups (osteocalcin; [12]): no statistically significant differences
LS Mean Difference in bone-specific alkaline phosphatase [1, 4]: about −8.62%
LS Mean Difference in bone-specific alkaline phosphatase [1, 5]: about 7.16%
LS Mean Difference in bone-specific alkaline phosphatase [1, 6]: about 4.76%
LS Mean Difference in bone-specific alkaline phosphatase [1, 7]: about 1.23%
LS Mean Difference in bone-specific alkaline phosphatase [1, 8]: about −1.75%
LS Mean Difference in bone-specific alkaline phosphatase [1, 9]: about 3.88%
change from baseline in bone-specific alkaline phosphatase (least squares mean) ([1]; Day 7, healthy subjects, placebo 4.70%, p=0.020): 20.80%
change from baseline in bone-specific alkaline phosphatase (least squares mean) ([1]; Day 14, healthy subjects, placebo −5.36%, p=0.006): 14.36%
LS Mean Difference (of percent change from baseline) in bone-specific alkaline phosphatase [1, 10]: about 16.10%
LS Mean Difference in bone-specific alkaline phosphatase [1, 11]: about 19.72%
bone marker difference between treatment groups [1, 12]: no statistically significant differences
LS Mean change in N-telopeptide of type I collagen [2, 4]: about 14.77%
LS Mean change in N-telopeptide of type I collagen [2, 5]: about −23.50%
change from baseline in urine N-telopeptide (least squares mean) ([2]; 150 mg BID, Day 14, healthy subjects, placebo 34.74%, p=0.050): −3.97%
LS Mean change in N-telopeptide of type I collagen [2, 6]: about −9.78%
LS Mean change in N-telopeptide of type I collagen [2, 7]: about −38.72%
LS Mean change in N-telopeptide of type I collagen [2, 8]: about −9.62%
LS Mean change in N-telopeptide of type I collagen [2, 9]: about −16.76%
LS Mean change in N-telopeptide of type I collagen [2, 10]: about 12.69%
LS Mean change in N-telopeptide of type I collagen [2, 11]: about −21.33%
bone marker difference between treatment groups [2, 12]: no statistically significant differences
Geometric Mean Ratio (fed/fasted) of AUC(0-inf) [3, 13]: 87.48%
Geometric Mean Ratio (fed/fasted) of AUC(0-tlast) [3, 13]: 87.42%
Geometric Mean Ratio (fed/fasted) of Cmax [3, 13]: 64.16%
decrease in AUC [3, 14]: 13%
decrease in Cmax [3, 14]: 36%
AUC(0-inf) ([3]; 375 mg tablet-fasted): 29100 ng·h/mL
Cmax ([3]; 375 mg tablet-fasted): 8990 ng/mL
AUC(0-t) ([3]; 375 mg tablet-fasted): 28900 ng·h/mL
half-life ([3]; 375 mg tablet-fasted): 9.48 h
Tmax ([3]; 375 mg tablet-fasted): 1 h
AUC(0-inf) [3, 15]: 24800 ng·h/mL
Cmax [3, 15]: 5840 ng/mL
AUC(0-t) [3, 15]: 24600 ng·h/mL
half-life [3, 15]: 8.52 h
Tmax [3, 15]: 4 h
